Measurements published in PubChem BioAssay (NCI).
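Growth conditions: 96-well plates. Treatment: test compound, 48 hours, 5 concentrations. Analysis: linear interpolation between bracketing concentrations; unreached endpoints set to highest concentration. At the GI50, growth is halved. TGI denotes the concentration required for complete inhibition of growth.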

Experiments:
Experiment in all cases: NCI anticancer screen, dose series, 48 h
SN12C renal = system: SN12C renal
MOLT-4 leukemia = system: MOLT-4 leukemia
K-562 leukemia = system: K-562 leukemia
MDA-MB-435 = system: MDA-MB-435
HT29 colon = system: HT29 colon
EKVX NSCLC = system: EKVX NSCLC
OVCAR-4 ovarian = system: OVCAR-4 ovarian
LOX IMVI melanoma = system: LOX IMVI melanoma
NCI-H522 lung = system: NCI-H522 lung
RPMI-8226 leukemia = system: RPMI-8226 leukemia

SMILES | GI50 (SN12C renal) | TGI (SN12C renal) | GI50 (MOLT-4 leukemia) | TGI (MOLT-4 leukemia) | GI50 (K-562 leukemia) | TGI (K-562 leukemia) | GI50 (MDA-MB-435) | TGI (MDA-MB-435) | GI50 (HT29 colon) | TGI (HT29 colon) | GI50 (EKVX NSCLC) | TGI (EKVX NSCLC) | GI50 (OVCAR-4 ovarian) | TGI (OVCAR-4 ovarian) | GI50 (LOX IMVI melanoma) | TGI (LOX IMVI melanoma) | GI50 (NCI-H522 lung) | TGI (NCI-H522 lung) | GI50 (RPMI-8226 leukemia) | TGI (RPMI-8226 leukemia)
C/C(Cc1ccc(Cl)cc1)=C(/c1ccc(Cl)cc1)c1ccc(OCCN(C)C)cc1 | 4.18 µM | 8.59 µM | 4.01 µM | 10 µM | 0.981 µM | 5.83 µM | 4.52 µM | 8.81 µM | 1.36 µM | 5.85 µM | 4.75 µM | 9.22 µM | 3.52 µM | 7.57 µM | 3.02 µM | 7.18 µM | 5.31 µM | 11.4 µM | 1.07 µM | 3.81 µM
COc1cnc2c(c1)C(=O)c1c-2n(CCCN2CCCC2)c(=O)c2cc(F)ccc12 | 0.214 µM | 10 µM | 0.0591 µM | 0.414 µM | 0.263 µM | 1.55 µM | 0.49 µM | 13.9 µM | 0.209 µM | 1.1 µM | 0.407 µM | 4.24 µM | 0.365 µM | 11.3 µM | 0.185 µM | 0.558 µM | 0.0819 µM | 1.23 µM | 0.123 µM | 0.643 µM
O=C(c1ccccc1)c1nc2ccc(C(F)(F)F)cc2[n+]([O-])c1C(F)(F)F | 54 µM | > 100 µM | 23 µM | 73.7 µM | 18.2 µM | > 100 µM | 43.8 µM | > 100 µM | 48.6 µM | > 100 µM | 21.1 µM | > 100 µM | 22.4 µM | > 100 µM | 33.6 µM | > 100 µM | 24.7 µM | 79 µM | 16.4 µM | > 100 µM
COc1ccc(C(=O)COc2cccc(/C=C3\CSc4ccc(C)cc4C3=O)c2)cc1 | 31.8 µM | > 100 µM | 3.13 µM | 10.2 µM | 2.17 µM | 6.9 µM | 3.59 µM | 83.9 µM | 6.02 µM | > 100 µM | 25.1 µM | > 100 µM | 7.26 µM | > 100 µM | 2.53 µM | 8.06 µM | 3.62 µM | 37.2 µM | 1.89 µM | 6.47 µM
O=C(CCCCCCSc1nc(-c2ccc(Cl)cc2)cc(-c2ccc(Cl)cc2)n1)NO | 1.6 µM | 6.24 µM | 1.5 µM | > 50 µM | 1.65 µM | > 50 µM | 1.86 µM | 13.6 µM | 1.41 µM | 7.46 µM | 2.6 µM | 39.6 µM | 1.57 µM | > 50 µM | 1.28 µM | 3.75 µM | 0.97 µM | 4.45 µM | 1.7 µM | > 50 µM
O=C1c2c(O)cc(O)cc2OC(c2ccc(O)cc2O)C1O (stereo not given) | > 100 µM | > 100 µM |  |  | > 100 µM | > 100 µM |  | > 100 µM | > 100 µM | > 100 µM |  | > 100 µM | > 100 µM | > 100 µM | > 100 µM | > 100 µM | > 100 µM | > 100 µM | > 100 µM | > 100 µM
COc1cccc2[nH]c(-c3ccccn3)nc12 |  | > 100 µM |  |  |  | > 100 µM |  | > 100 µM |  | > 100 µM |  | > 100 µM |  | > 100 µM |  | > 100 µM |  | > 100 µM |  | > 100 µM
O=[N+]([O-])c1ccc(Sc2c3ccccc3nc3ccccc23)nc1 |  | 29.6 µM |  | 8.99 µM |  |  |  | 21.3 µM |  | 8.62 µM |  | 31 µM |  | 12.9 µM |  | 4.97 µM |  | 8.09 µM |  | 5.03 µM
Nc1nnc(Cn2c(-c3ccccc3)nc3ccc(Br)cc3c2=O)s1 | 18.1 µM | 77.6 µM | 17.7 µM | 48.8 µM |  |  | 45.9 µM | > 100 µM | 48.1 µM | > 100 µM | > 100 µM | > 100 µM | > 100 µM | > 100 µM | 26.1 µM | > 100 µM | 38.1 µM | > 100 µM | 18.1 µM | 62.8 µM
Cc1cc(C)nc(SC2=C(Nc3cccc(Cl)c3C)C(=O)N(Cc3ccccc3)C2=O)n1 |  |  | > 160 µM | > 160 µM | > 160 µM | > 160 µM | > 160 µM | > 160 µM | > 160 µM | > 160 µM | > 160 µM | > 160 µM | > 160 µM | > 160 µM | > 160 µM | > 160 µM | > 160 µM | > 160 µM | > 160 µM | > 160 µM
